Here are results for three molecules from US6670459B2, “Process for the isolation of novel oligospirostanoside” (Zandu Pharmaceutical Works Ltd., priority 2002, dated 2003).

Read-outs that look alike come from different tables or passages of the source. Marks after values point to notes of the source that are not given here.

The subject of assay [1] is immunecompromised mice. In kind it is in vivo. The procedure:
(§1) 0 day: sensitization with 0.2 ml of 5×10^9 SRBC/ml i.p.
(§2) SRBC: Sheep red blood cell.
(§3) 5th day: measurement of foot thickness/Haemagglutination antibody titre

Assay [2] has as its system immunecompromised mice. It is filed as in vivo. The protocol: as §1
4th day: challenged with 20 μl of 5×10^9 SRBC/ml into right hind footpad for DTH reaction only.
as §2, §3
This is another data set of the same source.

Where [3] appears, read: immunecompromised mice, 2.5 mg/kg p.o., days 0-4, day 5, n=12.
Setting [4] is: mice, 250 mg/kg p.o., day 5, n=12.
[5] abbreviates: immunecompromised mice, 0.0006 mg/kg p.o., days 0-4, day 5, n=12.
The mark [6] stands for this setting: immunecompromised mice, 0.0125 mg/kg p.o., days 0-4, day 5, n=12.
[7] abbreviates: oral, immunecompromised experimental animals, dose levels 0.0062-0.0125 mg Kg^-1.

With `c1ccc([C@H]2CN3CCSC3=N2)cc1` [LEV, Levamisole, reference compound], in the assay with immunecompromised mice [1] (setting [3]), the “Antibody titre % change compared to control” value (shortened to “Antibody titre % change”) is given as 89*** % and the “Antibody titre mean ± S.E.” value is 6.80 ± 0.30. Further, in the assay with immunecompromised mice [2] (setting [3]), the “DTH % change compared to control” value is recorded as 140*** % and the “DTH mean ± S.E.” value is recorded as 1.08 ± 0.14.
On to Cyclodextrin [reference compound], for which, in the assay on immunecompromised mice [1] (setting [4]), the “Antibody titre % change” value is reported as 45* % and the “Antibody titre mean ± S.E.” value worked out at 3.60 ± 0.33. In addition, in the assay on immunecompromised mice [2] (setting [4]), the “DTH % change compared to control” value is 23* % and the “DTH mean ± S.E.” value is 0.45 ± 0.24.
On to `C[C@H]1CC[C@@]2(OC1)O[C@H]1C[C@H]3[C@@H]4CC[C@@H]5C[C@@H](O[C@@H]6O[C@H](CO)[C@@H](O[C@@H]7O[C@@H](C)[C@H](O)[C@@H](O)[C@H]7O[C@@H]7O[C@@H](C)[C@H](O)[C@@H](O)[C@H]7O)[C@H](O)[C@H]6O)CC[C@]5(C)[C@H]4CC[C@]3(C)[C@H]1[C@@H]2C` [AR-Iv, 3-0-[α-L-rhamnopyranosyl-(1→2)-α-L-rhamnopyranosyl-(1→4)-0-β-D-glucopyranosyl]-25(S)-5β-spirostan-3β-ol], for which the “Antibody titre % change” value is 56** % with immunecompromised mice [1] (setting [5]) and 78*** % in the assay on immunecompromised mice [1] (setting [6]). The “Antibody titre mean ± S.E.” value is on record as 5.60 ± 0.33 in the assay with immunecompromised mice [1] (setting [5]) and 6.41 ± 0.16 with immunecompromised mice [1] (setting [6]). The potentiated antibody synthesis in the assay with immunecompromised mice [1] (setting [7]) was 55.55-69.44%. Also, the “DTH % change compared to control” value is on record as 78*** % in the assay on immunecompromised mice [2] (setting [5]) and 102*** % in the assay on immunecompromised mice [2] (setting [6]). Moreover, the “DTH mean ± S.E.” value stood at 0.80 ± 0.14 in the assay with immunecompromised mice [2] (setting [5]) and 0.91 ± 0.42 with immunecompromised mice [2] (setting [6]). In the assay on immunecompromised mice [2] (setting [7]), the “enhanced cell-mediated immune response” value is recorded as 77.77-102.22%.
